The experiment addresses T1, prostanoid EP3 receptors (Homo sapiens, UniProt P43115).
T1 sequence (P43115 1-365 isoform P43115-3): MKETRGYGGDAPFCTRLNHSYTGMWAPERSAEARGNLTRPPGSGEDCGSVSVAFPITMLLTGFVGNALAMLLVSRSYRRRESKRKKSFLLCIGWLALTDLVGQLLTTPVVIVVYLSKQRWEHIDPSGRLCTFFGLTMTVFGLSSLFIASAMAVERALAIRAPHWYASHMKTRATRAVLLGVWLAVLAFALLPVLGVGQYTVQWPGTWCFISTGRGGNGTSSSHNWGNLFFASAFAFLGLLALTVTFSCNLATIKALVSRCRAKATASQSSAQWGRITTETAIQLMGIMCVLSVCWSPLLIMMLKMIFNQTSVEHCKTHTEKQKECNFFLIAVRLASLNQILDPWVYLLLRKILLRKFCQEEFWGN
As to the kind of experiment: binding on prostanoid EP3 receptors (method of Abramovitz et al.). Particulars: read-out: Activity (EP3 receptor binding IC50). Here is the method:
The compounds of the invention may be assayed for their binding on prostanoid EP3 receptors according to the method of Abramovitz et al. [Bioch. Biophys. Actas 1473, 285-293 (2000)]. All of the examples in the tables below have been synthesized, characterized and tested for EP3 receptor binding.
The compounds of the invention were assayed for their binding on prostanoid EP3 receptors according to the method of Abramovitz et al. [Bioch. Biophys. Acta, 1473, 285-293 (2000)]. […] Compounds with IC50<1 μM are shown as +++; compounds with IC50<1-10 μM are shown as ++; and compounds with IC50>10 μM are shown as +.

pIC50: −log10 of the molar value.

As usually defined, the pIC50 is the negative decadic logarithm of the IC50, by convention in mol/L. Regarding `Cc1cn(Cc2ccc(F)c(F)c2)c2c(-c3ccc(NS(=O)(=O)C(F)(F)F)cc3)cc(F)cc12` [Compound B07, N-{4-[1-(3,4-Difluoro-benzyl)-5-fluoro-3-methyl-1H-indol-7-yl]-phenyl}-C,C,C-trifluoro-methanesulfonamide], the negative-log IC50 (pIC50) is under 5.00.
`Cn1cc(-c2csc(NS(=O)(=O)c3ccc(F)c(F)c3)n2)c2c(Oc3ccc4ccccc4c3)cccc21` [Compound B44, 3,4-Difluoro-N-{4-[1-methyl-4-(naphthalen-2-yloxy)-1H-indol-3-yl]-thiazol-2-yl}-benzenesulfonamide]: the negative-log IC50 (pIC50) is 5.00 to 6.00.
Turning to `Cc1cn(Cc2ccc(F)c(F)c2)c2c(-c3cc(NS(=O)(=O)c4cc(Cl)c(Cl)s4)n(C)n3)cc(F)cc12` [Compound B15, 4,5-Dichloro-thiophene-2-sulfonic acid {5-[1-(3,4-difluoro-benzyl)-5-fluoro-3-methyl-1H-indol-7-yl]-2-methyl-2H-pyrazol-3-yl}-amide], the pIC50 is 5.00 to 6.00.
For `Cn1cc(-c2csc(NS(=O)(=O)c3cc(Cl)c(Cl)s3)n2)c2c(Oc3ccc4ccccc4c3)cccc21` [Compound B43, 4,5-Dichloro-thiophene-2-sulfonic acid {4-[1-methyl-4-(naphthalen-2-yloxy)-1H-indol-3-yl]-thiazol-2-yl}-amide] the value was 5.00 to 6.00; for `Cc1cn(Cc2ccc(Cl)cc2Cl)c2c(-c3nc(NS(=O)(=O)c4cc(Cl)c(Cl)s4)no3)cc(F)cc12` [Compound B42, 5-Dichloro-thiophene-2-sulfonic acid {5-[1-(2,4-dichloro-benzyl)-5-fluoro-3-methyl-1H-indol-7-yl]-[1,2,4]oxadiazol-3-yl}-amide], over 6.00.
In the case of `Cn1cc(-c2cc(NS(=O)(=O)c3ccc(F)c(F)c3)no2)c2c(Oc3ccc4ccccc4c3)cccc21` [Compound B45, 3,4-Difluoro-N-{5-[1-methyl-4-(naphthalen-2-yloxy)-1H-indol-3-yl]-isoxazol-3-yl}-benzenesulfonamide], the negative logarithm of the IC50 (pIC50) was over 6.00.
As for `Cc1cn(Cc2ccc3ccccc3c2)c2c(-c3cc(NS(=O)(=O)c4cc(F)c(F)cc4F)no3)cc(F)cc12` [Compound B39, 2,4,5-Trifluoro-N-[5-(5-fluoro-3-methyl-1-naphthalen-2-ylmethyl-1H-indol-7-yl)-isoxazol-3-yl]-benzenesulfonamide], the negative logarithm of the IC50 (pIC50) is over 6.00.
Regarding `Cc1cn(Cc2ccc(Cl)cc2Cl)c2c(-c3nnc(NC(=O)c4ccc(F)cc4)o3)cc(F)cc12` [Compound B23, N-{5-[1-(2,4-Dichloro-benzyl)-5-fluoro-3-methyl-1H-indol-7-yl]-[1,3,4]oxadiazol-2-yl}-4-fluoro-benzamide], the negative-log IC50 (pIC50) was 5.00 to 6.00.
`Cn1cc(Cc2ccc3ccccc3c2)c2c(-c3ccc(NS(=O)(=O)C(F)(F)F)cc3)cccc21` [Compound B08, C,C,C-Trifluoro-N-[4-(1-methyl-3-naphthalen-2-ylmethyl-1H-indol-4-yl)-phenyl]-methanesulfonamide]: the pIC50 is 5.00 to 6.00.
Regarding `Cc1cn(Cc2ccc(Cl)cc2Cl)c2c(-c3cc(NS(=O)(=O)c4ccc(Cl)c(Cl)c4)no3)cc(F)cc12` [Compound B37, 3,4-Dichloro-N-{5-[1-(2,4-dichloro-benzyl)-5-fluoro-3-methyl-1H-indol-7-yl]-isoxazol-3-yl}-benzenesulfonamide], the pIC50 was over 6.00.
For `Cc1cn(Cc2ccc(Cl)cc2Cl)c2c(-c3ccc(NS(C)(=O)=O)cc3)cc(F)cc12` [Compound B09, N-{4-[1-(2,4-Dichloro-benzyl)-5-fluoro-3-methyl-1H-indol-7-yl]-phenyl}-methanesulfonamide] the value was under 5.00; for `Cc1cn(Cc2ccc(F)c(F)c2)c2c(-c3cc(NS(=O)(=O)c4ccc(F)c(F)c4)no3)cc(F)cc12` [Compound B32, N-{5-[1-(3,4-Difluoro-benzyl)-5-fluoro-3-methyl-1H-indol-7-yl]-isoxazol-3-yl}-3,4-difluoro-benzenesulfonamide], over 6.00.
For `Cc1cn(Cc2ccc(F)c(F)c2)c2c(-c3ccc(NS(C)(=O)=O)cc3)cc(F)cc12` [Compound B06, N-{4-[1-(3,4-Difluoro-benzyl)-5-fluoro-3-methyl-1H-indol-7-yl]-phenyl}-methanesulfonamide] the value was 5.00 to 6.00.
As for `Cc1cn(Cc2ccc(Cl)cc2Cl)c2c(-c3cc(NS(=O)(=O)c4ccc(F)c(F)c4)no3)cc(F)cc12` [Compound B35, N-{5-[1-(2,4-Dichloro-benzyl)-5-fluoro-3-methyl-1H-indol-7-yl]-isoxazo 1-3-yl}-3,4-difluoro-benzenesulfonamide], the negative-log IC50 (pIC50) was over 6.00.
Regarding `Cn1cc(Cc2ccc3ccccc3c2)c2c(-c3ccc(NS(=O)(=O)c4cc(Cl)c(Cl)s4)cc3)cccc21` [Compound B04, 4,5-Dichloro-thiophene-2-sulfonic acid[4-(1-methyl-3-naphthalen-2-ylmethyl-1H-indol-4-yl)-phenyl]-amide], the pIC50 is 5.00 to 6.00.
`Cn1cc(Cc2ccc3ccccc3c2)c2c(-c3cc(N)nn3S(=O)(=O)c3cc(Cl)c(Cl)s3)cccc21` [Compound B02, 1-(4,5-Dichloro-thiophene-2-sulfonyl)-5-(1-methyl-3-naphthalen-2-ylmethyl-1H-indol-4-yl)-1H-pyrazol-3-ylamine]: the negative logarithm of the IC50 (pIC50) is 5.00 to 6.00.
Regarding `Cc1cn(Cc2ccc3ccccc3c2)c2c(-c3cc(NS(=O)(=O)c4cc(Cl)c(Cl)s4)no3)cc(F)cc12` [Compound B41], the pIC50 is over 6.00.

Values taken from US20060142348A1, “Aryl sulfonamide peri-substituted bicyclics for occlusive artery disease” (deCODE Chemistry, Inc., priority 2004, published 2006).
